In patent US7452896B2, “Pyrimidine-sulfamides and their use as endothelian receptor antagonist” (Actelion Pharmaceuticals Ltd., priority 2002, dated 2008):
pIC50: −log10 of the molar value.

How the values were obtained:
[1] = target: T1, ETA receptors (rat aortic rings) (Rattus norvegicus, UniProt P26684); assay: Inhibition of endothelin-1-induced contraction on isolated rat aortic rings; conditions: read-out: pA2 value Aorta (converted)
T1 construct: The thoracic aorta or trachea were excised, dissected and cut in 3-5 mm rings; from tissue; host or cells: thoracic aorta rings of adult Wistar rats, endothelium removed
T1 sequence (P26684 21-426): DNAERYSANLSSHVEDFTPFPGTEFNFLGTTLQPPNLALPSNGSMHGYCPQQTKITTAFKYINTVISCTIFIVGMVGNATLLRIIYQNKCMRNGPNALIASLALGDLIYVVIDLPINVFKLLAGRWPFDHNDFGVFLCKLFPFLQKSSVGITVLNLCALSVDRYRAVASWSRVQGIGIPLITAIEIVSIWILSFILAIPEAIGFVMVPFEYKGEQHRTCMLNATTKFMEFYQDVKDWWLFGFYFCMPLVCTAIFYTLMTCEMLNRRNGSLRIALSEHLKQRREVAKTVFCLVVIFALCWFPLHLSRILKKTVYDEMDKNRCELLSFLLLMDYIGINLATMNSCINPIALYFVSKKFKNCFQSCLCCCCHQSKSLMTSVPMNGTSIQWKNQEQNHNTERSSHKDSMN
Experimental: (§1) 2) Inhibition of Endothelin-Induced Contractions on Isolated Rat Aortic Rings (ETA Receptors) and Rat Tracheal Rings (ETB Receptors):
(§2) The functional inhibitory potency of the endothelin antagonists was assessed by their inhibition of the contraction induced by endothelin-1 on rat aortic rings (ETA receptors) and of the contraction induced by sarafotoxin S6c on rat tracheal rings (ETB receptors). Adult Wistar rats were anesthetized and exsanguinated. The thoracic aorta or trachea were excised, dissected and cut in 3-5 mm rings. The endothelium/epithelium was removed by gentle rubbing of the intimal surface. Each ring was suspended in a 10 ml isolated organ bath filled with Krebs-Henseleit solution (in mM; NaCl 115, KCl 4.7, MgSO4 1.2, KH2PO4 1.5, NaHCO3 25, CaCl2 2.5, glucose 10) kept at 37° C. and gassed with 95% O2 and 5% CO2. The rings were connected to force transducers and isometric tension was recorded (EMKA Technologies SA, Paris, France). The rings were stretched to a resting tension of 3 g (aorta) or 2 g (trachea). […] The functional inhibitory potency of the test compound was assessed by calculating the concentration ratio, i.e. the shift to the right of the EC50 induced by different concentrations of test compound. […]

[2] = target: T2, human recombinant ETB receptors (Homo sapiens, UniProt P24530); assay: Inhibition of [125I]ET-1 binding to membranes of CHO cells expressing human recombinant ETB receptors
T2 construct: expressed in transfected cells; host or cells: CHO cells (microsomal membranes)
T2 sequence (P24530 27-442): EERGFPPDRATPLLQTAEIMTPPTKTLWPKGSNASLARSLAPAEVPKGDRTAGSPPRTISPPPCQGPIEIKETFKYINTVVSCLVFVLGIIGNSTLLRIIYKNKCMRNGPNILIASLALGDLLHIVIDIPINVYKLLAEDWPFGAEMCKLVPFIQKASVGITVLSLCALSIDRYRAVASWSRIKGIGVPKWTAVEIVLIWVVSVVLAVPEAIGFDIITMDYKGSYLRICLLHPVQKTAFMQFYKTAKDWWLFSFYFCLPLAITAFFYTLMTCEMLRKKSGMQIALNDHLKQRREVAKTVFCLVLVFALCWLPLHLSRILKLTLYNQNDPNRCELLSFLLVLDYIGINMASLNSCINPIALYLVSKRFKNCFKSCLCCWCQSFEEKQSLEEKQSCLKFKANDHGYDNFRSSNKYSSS
Experimental: (§3) 1) Inhibition of Endothelin Binding to Membranes from CHO Cells Carrying Human ET Receptors:
(§4) For competition binding studies, membranes of CHO cells expressing human recombinant ETA or ETB receptors were used. Microsomal membranes from recombinant CHO cells were prepared and the binding assay made as previously described (Breu V., et al, FEBS Lett 1993; 334:210).
(§5) The assay was performed in 200 uL 50 mM Tris/HCl buffer, pH 7.4, including 25 mM MnCl2, 1 mM EDTA and 0.5% (w/v) BSA in polypropylene microtiter plates. […] After 2 h, the membranes were filtered on filterplates containing GF/C filters (Unifilterplates from Canberra Packard S.A. Zürich, Switzerland). To each well, 50 uL of scintillation cocktail was added (MicroScint 20, Canberra Packard S.A. Zürich, Switzerland) and the filter plates counted in a microplate counter (TopCount, Canberra Packard S.A. Zürich, Switzerland).
(§6) All the test compounds were dissolved, diluted and added in DMSO.

[3] = target: T3, ETB receptors (rat tracheal rings) (Rattus norvegicus, UniProt P21451); assay: Inhibition of sarafotoxin S6c-induced contraction on isolated rat tracheal rings; conditions: contraction induced by sarafotoxin S6c, read-out: pA2 value Trachea (converted)
T3 construct: The thoracic aorta or trachea were excised, dissected and cut in 3-5 mm rings; from tissue; host or cells: tracheal rings of adult Wistar rats, epithelium removed
T3 sequence (P21451 27-442): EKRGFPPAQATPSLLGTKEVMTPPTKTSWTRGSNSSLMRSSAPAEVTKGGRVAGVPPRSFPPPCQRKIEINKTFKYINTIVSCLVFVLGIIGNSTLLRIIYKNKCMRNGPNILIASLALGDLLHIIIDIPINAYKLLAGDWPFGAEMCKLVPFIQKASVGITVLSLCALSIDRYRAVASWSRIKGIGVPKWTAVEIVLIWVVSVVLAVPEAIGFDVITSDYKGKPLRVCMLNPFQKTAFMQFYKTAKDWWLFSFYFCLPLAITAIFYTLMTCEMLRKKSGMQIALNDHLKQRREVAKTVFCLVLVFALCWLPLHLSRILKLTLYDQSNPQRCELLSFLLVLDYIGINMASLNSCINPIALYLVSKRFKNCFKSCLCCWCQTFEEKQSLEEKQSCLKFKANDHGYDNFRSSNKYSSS
Experimental: as §1, §2

[4] = target: T4, human recombinant ETA receptors (Homo sapiens, UniProt P25101); assay: Inhibition of [125I]ET-1 binding to membranes of CHO cells expressing human recombinant ETA receptors
T4 construct: expressed in transfected cells; host or cells: CHO cells (microsomal membranes)
T4 sequence (P25101 21-427): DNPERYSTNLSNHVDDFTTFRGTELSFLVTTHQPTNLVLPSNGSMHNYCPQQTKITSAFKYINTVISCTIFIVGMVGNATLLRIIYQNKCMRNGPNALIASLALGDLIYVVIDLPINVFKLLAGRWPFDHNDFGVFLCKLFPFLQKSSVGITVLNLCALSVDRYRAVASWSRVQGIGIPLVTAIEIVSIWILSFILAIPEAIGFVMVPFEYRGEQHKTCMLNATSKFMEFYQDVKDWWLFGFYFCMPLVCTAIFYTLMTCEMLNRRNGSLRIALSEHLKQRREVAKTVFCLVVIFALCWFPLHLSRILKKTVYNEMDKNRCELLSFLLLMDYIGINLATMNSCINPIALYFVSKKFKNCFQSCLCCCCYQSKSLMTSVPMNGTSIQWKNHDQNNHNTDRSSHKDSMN
Experimental: as §3, §4, §5, §6

Compound | Kb [1] [nM] | pIC50 [2] | Kb [3] [nM] | pIC50 [4]
COCCNS(=O)(=O)Nc1ncnc(OCCOc2ncc(Br)cn2)c1Oc1cc(OC)ccc1Cl [Example 1, 2-methoxy-ethanesulfamic acid [6-[2-(5-bromo-pyrimidin-2-yloxy)-ethoxy]-5-(2-chloro-5-methoxy-phenoxy)-pyrimidin-4-yl]-amide] | 126 | 6.76 | 5130 | 9.55
COCCNS(=O)(=O)Nc1ncnc(OCCOc2ncc(Br)cn2)c1-c1ccc(Br)cc1 [Example 2, 2-methoxy-ethanesulfamic acid {5-(4-bromophenyl)-6-[2-(5-bromopyrimidin-2-yloxy)-ethoxy]-pyrimidin-4-yl}-amide] | 3.31 | 6.65 | > 10000 | 9.66
COCCNS(=O)(=O)Nc1ncnc(OCCOc2ncc(SC)cn2)c1-c1ccc(Br)cc1 [Example 3, 2-Methoxy-ethanesulfamic acid {5-(4-bromophenyl)-6-[2-(5-methylsulfanyl-pyrimidin-2-yloxy)-ethoxy]-pyrimidin-4-yl}-amide] |  | 6.92 |  | 9.70
COCCNS(=O)(=O)Nc1ncnc(OCCOc2ncc(OC)cn2)c1-c1ccc(Br)cc1 [Example 4, 2-Methoxy-ethanesulfamic acid {5-(4-bromophenyl)-6-[2-(5-methoxypyrimidin-2-yloxy)-ethoxy]-pyrimidin-4-yl}-amide] |  | 6.25 |  | 8.90
